The values below are quoted from earlier work in patent US8740762B2, “Specific inhibition of cPLA2 enhances the efficacy of radiotherapy” (Vanderbilt University, priority 2007, dated 2014).

The test system of one data set is pro-survival kinases. Conditions: 20 μM.

For lysophosphatidylcholine [LPC], the “activation of pro-survival kinases” value in the data set on pro-survival kinases is reported as “activated the same pro-survival kinases”. For the same substance, in the data set on HUVEC (concentrations higher than 25 μM), the cell death result was “promote cell death”. For the same substance, in the data set on HUVEC (up to 25 μM), the “proliferation of HUVEC” value is on record as “increase proliferation”.
